For one experiment, the target named is T1, human p38 kinase alpha (Homo sapiens, UniProt Q16539).
T1 construct: The coding region of the human p38a cDNA was obtained by PCR-amplification from RNA isolated from the human monocyte cell line THP.1; GST (N); made in house; host or cells: E. coli DH10B
As to the kind of experiment: p38 kinase in vitro assay, phosphorylation of biotinylated PHAS-I with gamma 32P-ATP. The conditions noted are these: for inhibition at 10 µM / inhibition at 1 µM: read-out: P38 alpha kinase % inhib @ conc. It is filed as biochemical. In short, it runs like this:
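MKK6-activated human p38α phosphorylates biotinylated PHAS-I with γ-32P-ATP in 25 mM HEPES pH 7.5, 10 mM Mg acetate, 50 μM unlabeled ATP, 1% DMSO, 30 °C for 1 h or overnight. Compounds at 100–0.001 μM (10-fold steps, triplicate); substrate captured on streptavidin filter plates and counted by scintillation.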

A further experiment relates to TNF-α. The experiment is described as follows: LPS stimulation of TNF production by U937 cells. Particulars: for inhibition at 1 µM / IC50: Homo sapiens; for inhibition at 1 µM: U-937, @ 1.0 uM, read-out: U937 Cell % inhib @ conc.; for U937 Cell % inhib @ conc.: @ 1.0 uM. It is filed as cell-based, human. On the procedure:
Fifty million cells in 100 ml media were induced to terminal monocytic differentiation by 24 hour incubation with 20 ng/ml phorbol 12-myristate 13-acetate (Sigma). The cells were washed by centrifugation (200×g for 5 min) and resuspended in 100 ml fresh medium. After 24-48 hours, the cells were harvested, centrifuged, and resuspended in culture medium at 2 million cells/ml.
Compounds were prepared as 10 mM stock solutions in DMSO and diluted in culture medium to yield a final DMSO concentration of 0.1% in the cell assay. LPS (E coli, 100 ng/ml final concentration) was then added at a volume of 0.02 ml. After 4 hour incubation at 37° C., the amount of TNF-α released in the culture medium was quantitated by ELISA. Inhibitory potency is expressed as IC50 (μM).
In vitro whole cell assay for measuring the ability of the compounds to inhibit TNF production in human U937 cells stimulated with LPS are shown in the column identified as: […]

Setting [1] is: read-out: P38 alpha kinase IC50.
Where [2] appears, read: p38α in vitro, PHAS-I assay procedure, read-out: p38^1 IC50.
Setting [3] is: U-937, LPS-stimulated U937 cells, read-out: U937 IC50.
Where [4] appears, read: U-937, TNF production, LPS-stimulated human U937 cells, read-out: U937 Cell IC50.

This note sets out measurements from patent publication US6525059B1, “Substituted pyrazoles as p38 kinase inhibitors” (G. D. Searle & Company, priority 1998, dated 2003).

Like-named read-outs stand apart in the source and are kept apart here.

T1 sequence (Q16539 whole entry): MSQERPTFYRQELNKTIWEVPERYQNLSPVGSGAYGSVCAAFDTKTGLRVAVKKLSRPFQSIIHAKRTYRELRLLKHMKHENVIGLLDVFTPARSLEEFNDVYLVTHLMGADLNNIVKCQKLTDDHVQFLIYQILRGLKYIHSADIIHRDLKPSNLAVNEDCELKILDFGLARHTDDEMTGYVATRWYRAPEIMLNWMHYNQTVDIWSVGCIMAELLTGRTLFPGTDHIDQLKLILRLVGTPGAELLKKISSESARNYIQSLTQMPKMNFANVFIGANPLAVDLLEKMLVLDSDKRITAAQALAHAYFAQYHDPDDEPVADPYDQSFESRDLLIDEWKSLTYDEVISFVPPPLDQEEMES

Turning to `CC(=O)OC(C)(C)C(=O)N[C@H](C)c1[nH]nc(-c2ccc(F)cc2)c1-c1ccncc1` [Example B-0358], at human p38 kinase alpha (setting [1]), the IC50 came out at 0.37 µM. Moreover, the inhibition at 1 µM with TNF-α was 17%.
With `CCOC(=O)C(CC(C)C)NC(=O)NCc1[nH]nc(-c2ccc(F)cc2)c1-c1ccncc1` (stereo not shown) [Example B-0189], at human p38 kinase alpha, the inhibition at 10 µM came to 42%. Also, the inhibition at 1 µM in the experiment on TNF-α worked out at 9%.
Turning to `CN(C)CCn1cc(-c2ccnc(CCc3ccc(F)cc3)c2)c(-c2ccc(F)cc2)n1` [Example A-275, 3-(4-fluorophenyl)-4-[2-[2-(4-fluorophenyl)ethyl]-4-pyridinyl]-N,N-dimethyl-1H-pyrazole-1-ethanamine], the IC50 was 10.1 µM at human p38 kinase alpha (setting [2]) and above 10 µM in the experiment with TNF-α (setting [3]).
On to `CC(C)c1cc(C(C)C)c(C(=O)NCc2[nH]nc(-c3ccc(F)cc3)c2-c2ccncc2)c(C(C)C)c1` [Example B-0272], for which the IC50 on human p38 kinase alpha (setting [1]) is 1.81 µM. For the same molecule, the inhibition at 1 µM in the experiment with TNF-α turned out to be 48%.
The corresponding values for `Cc1ccccc1C(=O)NCc1[nH]nc(-c2ccc(F)cc2)c1-c1ccncc1` [Example B-0267] are 0.48 µM and 11%.
Take `O=C(NCc1[nH]nc(-c2ccc(F)cc2)c1-c1ccncc1)Nc1ccccc1OC(F)(F)F` [Example B-0185]: the inhibition at 10 µM at human p38 kinase alpha is 65%. Moreover, the inhibition at 1 µM with TNF-α was 25%.
As for `CC(C)OC(=O)NCc1[nH]nc(-c2ccc(F)cc2)c1-c1ccncc1` [Example B-0205], the IC50 at human p38 kinase alpha (setting [1]) turned out to be 0.096 µM. Moreover, the inhibition at 1 µM in the experiment on TNF-α was determined as 54%.
The corresponding values for `O=S(=O)(NCc1[nH]nc(-c2ccc(F)cc2)c1-c1ccncc1)c1cccc(C(F)(F)F)c1` [Example B-0247] are 0.082 µM and 75%.
Taken in the same sequence, the figures for `Cc1ccc(S(C)(=O)=O)cc1S(=O)(=O)NCc1[nH]nc(-c2ccc(F)cc2)c1-c1ccncc1` [Example B-0260] were 0.56 µM and 23%.
`O=C(NCc1[nH]nc(-c2ccc(F)cc2)c1-c1ccncc1)NC(=O)c1ccccc1` [Example B-0146]: at human p38 kinase alpha, the inhibition at 10 µM is 77%. Besides, in the experiment on TNF-α, the inhibition at 1 µM is 28%.
In the case of `C[C@@H](NS(=O)(=O)c1ccc(F)cc1Cl)c1[nH]nc(-c2ccc(F)cc2)c1-c1ccncc1` [Example B-0449], on human p38 kinase alpha (setting [1]), the IC50 worked out at 0.83 µM. In addition, the inhibition at 1 µM in the experiment with TNF-α amounted to 81%.
Taken in the same sequence, the figures for `O=C(NCc1[nH]nc(-c2ccc(F)cc2)c1-c1ccncc1)c1ccc(F)cc1C(F)(F)F` [Example B-0286] were 0.33 µM and 50%.
The corresponding values for `C[C@@H](NC(=O)c1ccc(C(F)(F)F)cc1F)c1[nH]nc(-c2ccc(F)cc2)c1-c1ccncc1` [Example B-0508] are 2 µM and 48%.
Taken in the same sequence, the figures for `CCS(=O)(=O)N[C@H](C)c1[nH]nc(-c2ccc(F)cc2)c1-c1ccncc1` [Example B-0395] were 0.087 µM and 48%.
For the molecule `Cc1cccc(C)c1NC(=O)NCc1[nH]nc(-c2ccc(F)cc2)c1-c1ccncc1` [Example B-0168], at human p38 kinase alpha, the inhibition at 1 µM was determined as 44%. Further, the 50% inhibitory concentration (IC50) in the experiment with TNF-α (setting [4]) came out at 2.36 µM.
As to `O=C(NCc1[nH]nc(-c2ccc(F)cc2)c1-c1ccncc1)[C@H]1CCCN1` [Example B-0196], the values for the IC50 at human p38 kinase alpha (setting [1]) and in the experiment on TNF-α (setting [4]) were 2.24 µM and above 1 µM, respectively.
Turning to `C[C@@H](NC(=O)c1cccc(Cl)c1Cl)c1[nH]nc(-c2ccc(F)cc2)c1-c1ccncc1` [Example B-0504], the half-maximal inhibitory concentration (IC50) at human p38 kinase alpha (setting [1]) was 0.4 µM. In addition, the inhibition at 1 µM in the experiment on TNF-α amounted to 43%.
Regarding `Cn1cnc(S(=O)(=O)NCc2[nH]nc(-c3ccc(F)cc3)c2-c2ccncc2)c1` [Example B-0266], the IC50 at human p38 kinase alpha (setting [1]) turned out to be 0.25 µM. Moreover, the inhibition at 1 µM with TNF-α was 24%.
On to `O=C(NCc1[nH]nc(-c2ccc(F)cc2)c1-c1ccncc1)c1cc2ccccc2s1` [Example B-0271], for which, at human p38 kinase alpha (setting [1]), the IC50 was determined as 7.55 µM. Moreover, the inhibition at 1 µM in the experiment with TNF-α amounted to 12%.
Taken in the same sequence, the figures for `Cc1c(Cl)cccc1S(=O)(=O)N[C@H](C)c1[nH]nc(-c2ccc(F)cc2)c1-c1ccncc1` [Example B-0447] were 0.19 µM and 71%.
Taken in the same sequence, the figures for `O=C(NCc1[nH]nc(-c2ccc(F)cc2)c1-c1ccncc1)c1cccc(Cl)c1` [Example B-0300] were 0.78 µM and 32%.
The corresponding values for `CNC(=O)N[C@H](C)c1[nH]nc(-c2ccc(F)cc2)c1-c1ccncc1` [Example B-0408] are 0.5 µM and 50%.
Consider `O=S(=O)(NCc1[nH]nc(-c2ccc(F)cc2)c1-c1ccncc1)c1cccc2nonc12` [Example B-0252], for which, on human p38 kinase alpha (setting [1]), the IC50 is 0.041 µM. The inhibition at 1 µM with TNF-α was determined as 54%.
As to `CCOC(=O)c1cccc(NC(=O)NCc2[nH]nc(-c3ccc(F)cc3)c2-c2ccncc2)c1` [Example B-0154], the inhibition at 10 µM on human p38 kinase alpha worked out at 65%. Further, the inhibition at 1 µM in the experiment with TNF-α stood at 14%.
With `O=C(NCc1[nH]nc(-c2ccc(F)cc2)c1-c1ccncc1)c1cccc(C(F)(F)F)c1` [Example B-0270], the IC50 at human p38 kinase alpha (setting [1]) turned out to be 5.79 µM. The inhibition at 1 µM in the experiment on TNF-α stood at 13%.
In the case of `O=C(NCc1[nH]nc(-c2ccc(F)cc2)c1-c1ccncc1)c1ccccc1Br` [Example B-0301], the IC50 at human p38 kinase alpha (setting [1]) amounted to 0.19 µM. The inhibition at 1 µM in the experiment with TNF-α is 50%.
Taken in the same sequence, the figures for `C[C@@H](NS(=O)(=O)c1cc(Cl)c(Cl)s1)c1[nH]nc(-c2ccc(F)cc2)c1-c1ccncc1` [Example B-0452] were 0.7 µM and 75%.
As to `CC(C)(C)C(=O)NC(Cc1ccccc1)c1[nH]nc(-c2ccc(F)cc2)c1-c1ccncc1` (stereo not shown) [Example B-0746], the IC50 at human p38 kinase alpha (setting [1]) was found to be 0.01 µM. The “U937 Cell % inhib @ conc.” value in the experiment with TNF-α amounted to 22.0% @ 1.0 uM.
For `Cc1c(Cl)cccc1S(=O)(=O)NCc1[nH]nc(-c2ccc(F)cc2)c1-c1ccncc1` [Example B-0124], the inhibition at 1 µM on human p38 kinase alpha was determined as 73%; in the experiment on TNF-α it was 15%.
The corresponding values for `CCCCCCCC(=O)NCc1[nH]nc(-c2ccc(F)cc2)c1-c1ccncc1` [Example B-0064] are 90% and 4%.
As for `O=C(NCc1[nH]nc(-c2ccc(F)cc2)c1-c1ccncc1)c1ccc(Cl)nc1` [Example B-0052], the inhibition at 1 µM on human p38 kinase alpha was determined as 92%; in the experiment on TNF-α, 15%.
Regarding `C[C@@H](NC(=O)c1cc(C(F)(F)F)ccc1F)c1[nH]nc(-c2ccc(F)cc2)c1-c1ccncc1` [Example B-0506], the IC50 at human p38 kinase alpha (setting [1]) was determined as 0.94 µM. The inhibition at 1 µM in the experiment with TNF-α turned out to be 43%.
With `O=S(=O)(NCc1[nH]nc(-c2ccc(F)cc2)c1-c1ccncc1)c1ccc(F)cc1F` [Example B-0134], the inhibition at 1 µM at human p38 kinase alpha turned out to be 60%. Moreover, the IC50 in the experiment on TNF-α (setting [4]) turned out to be 2.17 µM.
Consider `O=C(Cc1cccc2ccccc12)NCc1[nH]nc(-c2ccc(F)cc2)c1-c1ccncc1` [Example B-0171], for which the inhibition at 10 µM on human p38 kinase alpha was 61%. Further, the inhibition at 1 µM with TNF-α was determined as 21%.
On to `C[C@@H](NS(=O)(=O)c1ccc(-c2ccccn2)s1)c1[nH]nc(-c2ccc(F)cc2)c1-c1ccncc1` [Example B-0483], for which the half-maximal inhibitory concentration (IC50) on human p38 kinase alpha (setting [1]) is 0.57 µM. In addition, in the experiment with TNF-α, the inhibition at 1 µM was determined as 68%.
Regarding `C=CCOC(=O)N[C@H](C)c1[nH]nc(-c2ccc(F)cc2)c1-c1ccncc1` [Example B-0357], the 50% inhibitory concentration (IC50) on human p38 kinase alpha (setting [1]) stood at 1.46 µM; with TNF-α (setting [4]), 0.66 µM.
For `CCCS(=O)(=O)NC(Cc1ccccc1)c1[nH]nc(-c2ccc(F)cc2)c1-c1ccncc1` (stereo not shown) [Example B-0760], the IC50 at human p38 kinase alpha (setting [1]) was determined as 0.01 µM. Also, the “U937 Cell % inhib @ conc.” value in the experiment with TNF-α is reported as 13.0% @ 1.0 uM.
Take `O=C(NCc1[nH]nc(-c2ccc(F)cc2)c1-c1ccncc1)c1ccc(Cl)cc1` [Example B-0268]: on human p38 kinase alpha (setting [1]), the IC50 is 3.39 µM. Moreover, the inhibition at 1 µM with TNF-α came out at 19%.
Taken in the same sequence, the figures for `C[C@@H](NC(=O)C1CCCC1)c1[nH]nc(-c2ccc(F)cc2)c1-c1ccncc1` [Example B-0376] were 2.99 µM and 12%.
Taken in the same sequence, the figures for `O=S(=O)(NCc1[nH]nc(-c2ccc(F)cc2)c1-c1ccncc1)c1cccc(Br)c1` [Example B-0235] were 1.31 µM and 90%.
The corresponding values for `O=C(NCc1[nH]nc(-c2ccc(F)cc2)c1-c1ccncc1)c1ccc(Cl)cc1Cl` [Example B-0291] are 1.33 µM and 20%.
`NC(=O)NCc1[nH]nc(-c2ccc(F)cc2)c1-c1ccncc1` [Example B-0214]: on human p38 kinase alpha (setting [1]), the IC50 was determined as 0.16 µM. Besides, the inhibition at 1 µM in the experiment on TNF-α came out at 50%.
Turning to `Clc1ccc(-c2n[nH]cc2-c2ccncc2)cc1Cl` [Example A-297, 4-[3-(3,4-dichlorophenyl)-1H-pyrazol-4-yl]pyridine], the IC50 on human p38 kinase alpha (setting [2]) was found to be 0.52 µM; in the experiment on TNF-α (setting [3]), 0.17 µM.
Turning to `CCOC(=O)CCCC(=O)NCc1[nH]nc(-c2ccc(F)cc2)c1-c1ccncc1` [Example B-0096], the values for the inhibition at 1 µM on human p38 kinase alpha and in the experiment on TNF-α were 91% and 22%, respectively.

One may read the IC50 as the concentration that inhibits the measured activity by half.
